Experimental data published in ChEMBL document CHEMBL1201862, “PubChem BioAssay data set” (2004).
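Method: 48-hour compound exposure of cells in 96-well plates, five concentrations, linear interpolation of endpoints. GI50 is the concentration that inhibits growth by half.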 The source made the active and inactive calls. Cut-off read from the data, not from the text of the source: active = GI50 up to about 1.1 µM and inactive = higher.

Assays:
Assay in all cases: NCI-60 cell line screen, 48 h
IGROV-1 = system: IGROV-1
MDA-MB-435 = system: MDA-MB-435
SF-295 = system: SF-295
SK-MEL-2 = system: SK-MEL-2
UACC-62 = system: UACC-62
COLO 205 = system: COLO 205
HCT-15 = system: HCT-15
NCI/ADR-RES = system: NCI/ADR-RES
OVCAR-4 = system: OVCAR-4
SK-MEL-28 = system: SK-MEL-28
SR = system: SR
HCC 2998 = system: HCC 2998
CCRF-CEM = system: CCRF-CEM
HOP-92 = system: HOP-92
OVCAR-3 = system: OVCAR-3
NCI-H23 = system: NCI-H23
HL-60 = system: HL-60
Hs-578T = system: Hs-578T
LOX IMVI = system: LOX IMVI
MDA-N = system: MDA-N

Structure (SMILES)	GI50 (IGROV-1)	GI50 (MDA-MB-435)	GI50 (SF-295)	GI50 (SK-MEL-2)	GI50 (UACC-62)	GI50 (COLO 205)	GI50 (HCT-15)	GI50 (NCI/ADR-RES)	GI50 (OVCAR-4)	GI50 (SK-MEL-28)	GI50 (SR)	GI50 (HCC 2998)	GI50 (CCRF-CEM)	GI50 (HOP-92)	GI50 (OVCAR-3)	GI50 (NCI-H23)	GI50 (HL-60)	GI50 (Hs-578T)	GI50 (LOX IMVI)	GI50 (MDA-N)
Cc1ccc2ccccc2c1CSc1nc(N)nc2c1ncn2CC(C)C	51.2 µM (inactive)	10.3 µM (inactive)	5.86 µM (inactive)	17 µM (inactive)	26.3 µM (inactive)	6.4 µM (inactive)	10.9 µM	21.8 µM (inactive)	11.1 µM (inactive)	55.8 µM (inactive)	4.79 µM (inactive)	19.3 µM (inactive)	6.15 µM (inactive)	17.8 µM (inactive)	14.4 µM (inactive)	24.4 µM (inactive)	16.2 µM (inactive)	> 35.2 µM (inactive)	34.8 µM (inactive)	15.7 µM (inactive)
CC[C@@]1(O)C(=O)OCc2c1cc1n(c2=O)Cc2cc3c(NC(=O)CN)cccc3nc2-1	3.42 µM (inactive)	1.49 µM (inactive)	0.115 µM (active)	3.7 µM (inactive)	0.0506 µM (active)	6.1 µM (inactive)	8.13 µM	0.188 µM (active)	4.51 µM (inactive)	7.05 µM (inactive)	< 0.01 µM (active)	1.96 µM (inactive)	< 0.01 µM (active)	3.48 µM (inactive)	2.17 µM (inactive)	0.114 µM (active)	< 0.0362 µM (active)	> 36.2 µM (inactive)	0.0575 µM (active)	2.1 µM (inactive)
CN(C)c1ccc(/C=C/c2cc[n+](C)c3ccccc23)cc1	5.16 µM (inactive)	2.03 µM (inactive)	3.84 µM (inactive)	2.27 µM (inactive)	3.13 µM (inactive)	1.36 µM (inactive)	29.9 µM	> 100 µM (inactive)	5.05 µM (inactive)	5.32 µM (inactive)	0.698 µM (active)	6.32 µM (inactive)	1.9 µM (inactive)	2.96 µM (inactive)	1.77 µM (inactive)	2.11 µM (inactive)	0.748 µM (active)	2.74 µM (inactive)	3.48 µM (inactive)	2.27 µM (inactive)
CC1(C)CCCCCCCCCC(C)(CCCCCCCCCCCCO)C1=O (stereo not given)	19.1 µM (inactive)	17.7 µM (inactive)	16.2 µM (inactive)	17.1 µM (inactive)	18.3 µM (inactive)	28.6 µM (inactive)	21.7 µM	18.5 µM (inactive)	17.1 µM (inactive)	18.2 µM (inactive)	55.3 µM (inactive)	0.655 µM (active)	17.4 µM (inactive)	16.9 µM (inactive)	15.6 µM (inactive)	18.7 µM (inactive)	15.7 µM (inactive)	19.7 µM (inactive)	17.6 µM (inactive)	18.6 µM (inactive)
C[C@@H]1CC[C@@]2(NC1)O[C@H]1C[C@H]3[C@@H]4CC[C@H]5C[C@@H](O)CC[C@]5(C)[C@H]4CC[C@]3(C)[C@H]1[C@@H]2C	90.2 µM (inactive)	> 100 µM (inactive)	35.5 µM (inactive)	> 100 µM (inactive)	57.3 µM (inactive)	57.1 µM (inactive)	36.9 µM	30.8 µM (inactive)	26.8 µM (inactive)	> 100 µM (inactive)	35.5 µM (inactive)	37.2 µM (inactive)	> 100 µM (inactive)	93.5 µM (inactive)	61.7 µM (inactive)	77.3 µM (inactive)	21.6 µM (inactive)	46 µM (inactive)	32.7 µM (inactive)	36 µM (inactive)
CC(C)(CCCCC(C)(C)NCC1COc2ccccc2O1)NCC1COc2ccccc2O1 (stereo not given)	> 10 µM (inactive)	1.81 µM (inactive)	9.95 µM (inactive)	3.29 µM (inactive)	3.43 µM (inactive)	2.12 µM (inactive)	7.98 µM	> 10 µM (inactive)	> 10 µM (inactive)	2.16 µM (inactive)	> 10 µM (inactive)	2.42 µM (inactive)	> 10 µM (inactive)	2.19 µM (inactive)	> 10 µM (inactive)	> 10 µM (inactive)	> 10 µM (inactive)	5.66 µM (inactive)	3.33 µM (inactive)	2.81 µM (inactive)
CC1=CC(C)C(O)C(C)/C=C\C(O)C/C=C(/C)C(=O)CC(O)C(C)\C=C/C=C\C=C/C(=O)NC2=C(O)C(=O)c3c(cc(C)c(O)c3C1=O)C2=O (stereo not given)	74.8 µM (inactive)	> 100 µM (inactive)	> 100 µM (inactive)	> 100 µM (inactive)	97.7 µM (inactive)	> 100 µM (inactive)	> 100 µM	> 100 µM (inactive)	> 100 µM (inactive)	> 100 µM (inactive)	31.9 µM (inactive)	86.1 µM (inactive)	69.2 µM (inactive)	> 100 µM (inactive)	> 100 µM (inactive)	> 100 µM (inactive)	> 100 µM (inactive)	46 µM (inactive)	> 100 µM (inactive)	> 100 µM (inactive)
CSc1c(C#N)c(N)nc2c(/N=N\c3ccc(Br)cc3)c(N)nn12	3.01 µM (inactive)	9.66 µM (inactive)	8.63 µM (inactive)	4.48 µM (inactive)	7.26 µM (inactive)	10 µM (inactive)	3.5 µM	17.7 µM (inactive)	7.21 µM (inactive)	10.7 µM (inactive)	2.55 µM (inactive)	8.87 µM (inactive)	3.12 µM (inactive)	6.81 µM (inactive)	2.95 µM (inactive)	6.25 µM (inactive)	2.82 µM (inactive)	2.37 µM (inactive)	1.96 µM (inactive)	6.71 µM (inactive)
Cc1ccnc(NC(NC(=O)c2ccccc2)(C(F)(F)F)C(F)(F)F)c1	> 100 µM (inactive)	> 100 µM (inactive)	> 100 µM (inactive)	> 100 µM (inactive)	> 100 µM (inactive)	> 100 µM (inactive)	> 100 µM	> 100 µM (inactive)	> 100 µM (inactive)	> 100 µM (inactive)	41.1 µM (inactive)	> 100 µM (inactive)	75.9 µM (inactive)	> 100 µM (inactive)	> 100 µM (inactive)	> 100 µM (inactive)	> 100 µM (inactive)	> 100 µM (inactive)	> 100 µM (inactive)	> 100 µM (inactive)
COc1ccc2c(c1)nc1n2C(c2c(F)cccc2F)SC1 (stereo not given)	47.5 µM (inactive)	26.2 µM (inactive)	32.4 µM (inactive)	31.6 µM (inactive)	29.1 µM (inactive)	40.6 µM (inactive)	35.2 µM	38.2 µM (inactive)	> 100 µM (inactive)	> 100 µM (inactive)	13.5 µM (inactive)	55.1 µM (inactive)	47.5 µM (inactive)	76 µM (inactive)	62.8 µM (inactive)	29 µM (inactive)	27.9 µM (inactive)	35.2 µM (inactive)	45.6 µM (inactive)	40 µM (inactive)
O=C1CCCC1C(O)(C(F)(F)F)C(F)(F)F (stereo not given)	> 100 µM (inactive)	> 100 µM (inactive)	> 100 µM (inactive)	> 100 µM (inactive)	> 100 µM (inactive)	> 100 µM (inactive)	> 100 µM	> 100 µM (inactive)	> 100 µM (inactive)	> 100 µM (inactive)	> 100 µM (inactive)	> 100 µM (inactive)	> 100 µM (inactive)	> 100 µM (inactive)	> 100 µM (inactive)	> 100 µM (inactive)	> 100 µM (inactive)	> 100 µM (inactive)	> 100 µM (inactive)	> 100 µM (inactive)
COc1ccccc1-c1cc(=O)c2ccc(OC)c(OC)c2o1	97.1 µM (inactive)	46 µM (inactive)	40.8 µM (inactive)	70.6 µM (inactive)	51.5 µM (inactive)	49.3 µM (inactive)	41.4 µM	26.4 µM (inactive)	38.4 µM (inactive)	> 100 µM (inactive)	> 100 µM (inactive)	52.8 µM (inactive)	> 100 µM (inactive)	28.2 µM (inactive)	31.6 µM (inactive)	> 100 µM (inactive)	27.5 µM (inactive)	41.7 µM (inactive)	33.1 µM (inactive)	48.2 µM (inactive)
COC1=CC(=O)c2c(O)c3c(c(O)c2C1=O)CC(C)(O)OC3 (stereo not given) [FUSARUBIN]	1.99 µM (inactive)	1.65 µM (inactive)	3.12 µM (inactive)	1.95 µM (inactive)	2.07 µM (inactive)	0.897 µM (active)	1.58 µM	2.56 µM (inactive)	1.4 µM (inactive)	6.11 µM (inactive)	5.36 µM (inactive)	2.99 µM (inactive)	1.25 µM (inactive)	2.88 µM (inactive)	0.906 µM (active)	2.28 µM (inactive)	2.42 µM (inactive)	2.38 µM (inactive)	2.59 µM (inactive)	1.89 µM (inactive)
